Assay results reported in US20060029544A1, “Receptor-binding cyclic peptides and methods of use” (The Regents of the University of California Office of …, priority 2004, published 2006).
Several values for one entry are separate records, joined by “and”; a condition that tells them apart may be missing. Equal entries are not always repeated.

What was measured:
[1] = tested on: A375M melanoma cell line; assay: Adhesion assay: [51Cr]-A375M cells to laminin; type: cell-based, human
Description: (§1) RGD peptides were plated at a maximum concentration of 200 μM and a minimum concentration of 2 nM. For each RGD peptide sequence, linear peptides (A), cyclic peptides (B), and 4-[^19F]-fluorobenzoyl cyclic peptides (C) were assayed. Each RGD peptide concentration was performed in quadruplicate and each experiment was repeated twice.
(§2) Plastic 96-well plates (Falcon 3912; Becton Dickinson) were coated with 50 μl substrate (10 μg/ml laminin or 5 μg/ml vitronectin). The plates were incubated at 37° C. in an 8% CO2 atmosphere for 1 hour. Unbound protein was flicked off and the plates were washed with phosphate buffered saline (PBS) and blocked with bovine serum albumin (0.1% w/v BSA)/PBS/0.1% sodium azide) for 1 hour. The plates were then washed with PBS, placed on a bed of ice and 25 μl of peptide was added to the wells.
(§3) Sodium [^51Cr] chromate was purchased from Amersham International, UK. The solution was made isotonic by the addition of 110 μl 10× Hanks buffered salt solution. 100 μl of this solution (3.7 MBq) was added to 5-10×10^6 cells in 500 μl of serum-containing growth medium. The suspension was incubated at 37° C. for 45 minutes with regular agitation to resuspend the cells. The cells were then washed and spun 3 times with serum-free E4 medium to remove any free [^51Cr]chromium. A trypan blue viability count was performed and the cells were diluted to the necessary volume in serum-free E4 medium (4×10^5 cells/ml).
(§4) 25 μl (about 10,000 cells) were added to each quadruplicate well and the plates incubated at 37° C. in an 8% CO2 atmosphere for 1 hour. Unbound cells were flicked off and the plates were washed twice with PBS/BSA containing 1 mM CaCl2 and 0.5 mM MgCl2. The plates were dabbed dry and cut into individual wells. The radioactivity associated with each well was determined in a gamma counter (1261 Multigamma; Wallac, Sweden). Quadruplicate 25 μl samples of labeled cells were counted as 100% input values. To determine non-specific binding, the ability of cells to bind BSA-coated wells was also assessed. Data for these wells are referred to as background.
The results were calculated as follows: [formula] [formula] NMR Spectroscopy of RGD Peptides
The A375M and VUP melanoma cell lines were used with vitronectin and laminin as substrates. Peptides were titrated in 10-fold dilutions from 200 μM to 2 nM. All data were normalized to the absence of peptide, which corresponded to 100% adhesion. All titrations were performed in quadruplicate and each experiment was repeated at least twice.

[2] = tested on: VUP melanoma cell line; assay: Adhesion assay: [51Cr]-VUP cells to laminin; type: cell-based
Description: as §1, §2, §3
as §4, with “Data for these wells are referred to as background.” left out
(§5) The results were calculated as follows: [formula] […]

[3] = biological target: T1, αvβ3 integrin (Homo sapiens, UniProt P05106+P06756); assay: ELISA: soluble αvβ3-mFc binding to immobilized 50 kDa fibronectin fragment in the presence of RGD peptides
T1 construct: chimeras comprising the extracellular domain of αvβ3, αvβ5, α5β1, and αIIbβ3 linked to the Fc domain of either mouse IgG; purchased Celltech plc (supplied, no catalogue number)
T1 sequence (P06756 31-992 limits assumed): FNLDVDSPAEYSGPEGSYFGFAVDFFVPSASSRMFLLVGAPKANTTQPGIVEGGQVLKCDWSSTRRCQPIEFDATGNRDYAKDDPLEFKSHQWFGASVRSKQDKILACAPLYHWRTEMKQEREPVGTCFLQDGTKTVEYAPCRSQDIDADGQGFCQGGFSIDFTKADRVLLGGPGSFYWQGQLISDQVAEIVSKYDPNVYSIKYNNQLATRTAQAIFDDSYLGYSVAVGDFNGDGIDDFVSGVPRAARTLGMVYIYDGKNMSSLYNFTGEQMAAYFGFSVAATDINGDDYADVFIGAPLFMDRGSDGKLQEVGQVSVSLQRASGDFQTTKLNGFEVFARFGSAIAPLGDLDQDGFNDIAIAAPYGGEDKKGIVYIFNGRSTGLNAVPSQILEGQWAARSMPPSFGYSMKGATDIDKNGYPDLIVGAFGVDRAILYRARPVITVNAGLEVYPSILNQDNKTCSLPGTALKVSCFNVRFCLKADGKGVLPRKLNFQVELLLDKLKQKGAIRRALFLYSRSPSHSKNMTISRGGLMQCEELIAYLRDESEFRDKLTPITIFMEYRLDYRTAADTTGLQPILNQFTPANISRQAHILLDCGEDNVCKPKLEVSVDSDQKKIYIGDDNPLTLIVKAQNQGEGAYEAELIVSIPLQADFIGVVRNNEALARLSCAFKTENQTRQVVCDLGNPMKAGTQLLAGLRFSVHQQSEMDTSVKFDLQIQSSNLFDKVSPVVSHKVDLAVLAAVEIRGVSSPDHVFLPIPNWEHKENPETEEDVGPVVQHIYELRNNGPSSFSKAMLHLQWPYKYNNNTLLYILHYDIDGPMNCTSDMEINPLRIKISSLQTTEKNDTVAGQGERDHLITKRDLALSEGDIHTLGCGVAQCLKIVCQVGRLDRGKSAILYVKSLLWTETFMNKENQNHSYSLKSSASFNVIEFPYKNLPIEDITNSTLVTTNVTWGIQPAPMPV
T1 sequence (P05106 27-718 limits assumed): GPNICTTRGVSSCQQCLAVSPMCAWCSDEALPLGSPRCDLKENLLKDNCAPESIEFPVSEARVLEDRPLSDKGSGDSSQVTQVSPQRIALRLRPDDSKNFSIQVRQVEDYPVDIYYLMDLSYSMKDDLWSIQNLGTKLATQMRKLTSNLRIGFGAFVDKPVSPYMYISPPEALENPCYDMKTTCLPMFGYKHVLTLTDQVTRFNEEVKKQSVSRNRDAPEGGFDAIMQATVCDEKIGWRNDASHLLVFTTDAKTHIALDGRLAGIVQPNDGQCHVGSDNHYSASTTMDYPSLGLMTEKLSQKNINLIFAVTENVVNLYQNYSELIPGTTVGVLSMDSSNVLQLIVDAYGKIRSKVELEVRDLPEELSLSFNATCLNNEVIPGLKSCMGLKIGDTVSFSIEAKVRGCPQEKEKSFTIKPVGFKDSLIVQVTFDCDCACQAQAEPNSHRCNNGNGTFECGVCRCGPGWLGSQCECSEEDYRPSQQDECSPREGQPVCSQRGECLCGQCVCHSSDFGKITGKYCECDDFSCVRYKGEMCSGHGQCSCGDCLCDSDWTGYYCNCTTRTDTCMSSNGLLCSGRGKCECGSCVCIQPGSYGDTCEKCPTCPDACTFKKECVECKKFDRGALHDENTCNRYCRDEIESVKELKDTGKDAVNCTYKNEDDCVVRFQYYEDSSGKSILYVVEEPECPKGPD
Excerpt: (§6) Four different soluble integrins were supplied by Celltech plc. Soluble forms of αvβ3, αvβ5, α5β1, and αIIbβ3 integrin were generated by constructing chimeras comprising the extracellular domain of αvβ3, αvβ5, α5β1, and αIIbβ3 linked to the Fc domain of either mouse IgG (αvβ3-mFc, αvβ5-mFc, and αIIbβ3-mFc) or human IgG (α5β1-hFc) as described by Stephens et al., Cell Adhes. Commun., 7:377-390 (2000) and Coe et al., J. Biol. Chem., 276:35854-35866 (2001). Since the four soluble integrin chimeras were supplied either as purified proteins (αvβ3-mFc and α5β1-hFc) or as unpurified hybridoma supernatants (αIIbβ3-mFc and αvβ5-mFc), it was necessary to use two types of ELISAs. […] In one type of ELISA (FIGS. 2A and 2B), the immobilized component is a 50 kDa fragment of fibronectin. In the second type of ELISA (FIGS. 2C and 2D), the immobilized component is a goat anti-mFc antibody that is used to capture chimeric proteins so that the RGD binding site of the integrin is maximally exposed. Each three-sided box in FIG. 2 represents a single well of a 96-well plate, and the components are listed in the sequence of their addition to the assay. The immobilized component at the bottom of the well is bound to the well by electrostatic interactions.
The plates were washed with PBS using a Denley Wellwash 4 Mk 2. Washing was repeated twice with a 400 μl wash per well. […] Plates were read using a plate spectrophotometer at 630 nm.
(§7) Two negative and two positive controls were used in both types of ELISAs.
(§8) FIGS. 3-6 illustrate the percent binding of the vitronectin, fibronectin, or fibrinogen ligand to αvβ5, α5β1, αIIbβ3, or αvβ3 integrin in the presence of RGD peptides (i.e., linear (A), cyclic (B), or 4-[^19F]-fluorobenzoyl cyclic (C)) at different concentrations, with 100% maximum signal being the signal obtained in the absence of the peptide.

[4] = biological target: T2, α5β1 integrin (Homo sapiens, UniProt P05556+P08648); assay: ELISA: soluble α5β1-hFc binding to immobilized 50 kDa fibronectin fragment in the presence of RGD peptides
T2 construct: chimeras comprising the extracellular domain of αvβ3, αvβ5, α5β1, and αIIbβ3 linked to the Fc domain of either mouse IgG; purchased Celltech plc (supplied, no catalogue number)
T2 sequence (P08648 42-995 limits assumed): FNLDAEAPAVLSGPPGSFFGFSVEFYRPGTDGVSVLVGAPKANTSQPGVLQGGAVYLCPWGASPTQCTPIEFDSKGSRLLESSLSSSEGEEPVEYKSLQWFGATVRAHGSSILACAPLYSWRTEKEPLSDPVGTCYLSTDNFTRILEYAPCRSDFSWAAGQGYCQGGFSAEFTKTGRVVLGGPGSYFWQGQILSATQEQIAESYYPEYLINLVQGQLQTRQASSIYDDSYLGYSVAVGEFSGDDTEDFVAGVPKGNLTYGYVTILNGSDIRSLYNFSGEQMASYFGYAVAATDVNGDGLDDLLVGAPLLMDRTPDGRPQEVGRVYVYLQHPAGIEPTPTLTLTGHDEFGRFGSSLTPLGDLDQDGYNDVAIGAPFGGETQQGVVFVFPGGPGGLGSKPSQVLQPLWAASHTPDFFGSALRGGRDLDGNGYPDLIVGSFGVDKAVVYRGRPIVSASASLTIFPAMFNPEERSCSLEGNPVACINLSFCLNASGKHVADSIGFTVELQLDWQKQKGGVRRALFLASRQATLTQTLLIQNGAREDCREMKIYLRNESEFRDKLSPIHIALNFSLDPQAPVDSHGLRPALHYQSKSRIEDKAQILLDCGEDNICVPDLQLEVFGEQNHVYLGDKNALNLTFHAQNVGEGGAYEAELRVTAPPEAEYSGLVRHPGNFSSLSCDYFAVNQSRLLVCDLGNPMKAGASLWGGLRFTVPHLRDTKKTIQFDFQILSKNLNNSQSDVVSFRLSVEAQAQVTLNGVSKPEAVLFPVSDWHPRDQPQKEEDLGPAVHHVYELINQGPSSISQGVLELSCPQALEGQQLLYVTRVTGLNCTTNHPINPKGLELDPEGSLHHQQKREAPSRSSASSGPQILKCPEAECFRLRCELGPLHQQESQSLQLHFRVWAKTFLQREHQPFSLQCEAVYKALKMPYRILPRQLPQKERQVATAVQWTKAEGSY
T2 sequence (P05556 21-728 limits assumed): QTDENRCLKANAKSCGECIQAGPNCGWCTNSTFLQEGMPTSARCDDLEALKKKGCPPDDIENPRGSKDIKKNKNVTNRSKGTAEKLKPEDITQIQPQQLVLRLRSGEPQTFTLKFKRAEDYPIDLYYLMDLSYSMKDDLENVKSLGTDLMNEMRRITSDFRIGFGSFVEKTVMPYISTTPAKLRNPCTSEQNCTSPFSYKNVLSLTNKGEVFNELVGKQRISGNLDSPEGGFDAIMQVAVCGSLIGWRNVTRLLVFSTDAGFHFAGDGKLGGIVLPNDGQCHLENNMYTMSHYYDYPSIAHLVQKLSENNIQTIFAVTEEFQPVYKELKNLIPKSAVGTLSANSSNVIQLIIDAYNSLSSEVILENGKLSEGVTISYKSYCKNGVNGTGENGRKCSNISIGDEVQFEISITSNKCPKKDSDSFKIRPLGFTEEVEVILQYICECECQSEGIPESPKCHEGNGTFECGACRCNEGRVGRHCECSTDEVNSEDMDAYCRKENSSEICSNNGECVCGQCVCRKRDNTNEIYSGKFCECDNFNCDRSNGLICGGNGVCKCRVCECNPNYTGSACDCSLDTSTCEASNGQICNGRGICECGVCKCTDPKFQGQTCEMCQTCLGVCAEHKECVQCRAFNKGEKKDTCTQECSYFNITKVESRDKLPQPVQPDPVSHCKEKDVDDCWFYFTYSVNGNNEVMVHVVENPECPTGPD
Excerpt: as §6
To analyze the affinity and selectively of RGD peptides for αvβ3 and α5β1, 96-well ELISA plates were coated with 100 μl of a 5 μg/ml of the 50 kDa fragment of fibronectin in PBS per well and left overnight at 4° C. The plates were washed with PBS using a Denley Wellwash 4 Mk 2. Washing was repeated twice with a 400 μl wash per well. 200 μ/well of blocking buffer (i.e., to prevent non-specific binding of proteins) was then added for 1 hour followed by a repeat washing with PBS. RGD peptides were then added at a maximum concentration of 200 μM and a preliminary screen was performed at three concentrations, 200,20, and 2 μM. 100 μl of an RGD peptide was added to each well and each assay was performed in triplicate. Purified soluble αvβ3-mFc or purified α5β1-hFc was diluted to 2 μg/ml and 15 ng/ml, respectively, in conjugate buffer and 100 μl was added to each well. The plates were incubated for 2 hours with shaking using a Luckham R100 Rotatest at approximately 150 rpm. After incubation, the plates were washed with PBS as previously described and a labeled antibody was added. For the αvβ3 assay, a horseradish peroxidase (HRP)-labeled F(ab′)2 fragment of goat anti-mouse IgG Fc was diluted 1:2000 in conjugate buffer and 100 μl was added to each well. For the α5β1 assay, an HRP-labeled F(ab′)2 fragment of goat anti-human IgG Fc was diluted 1:2000 in conjugate buffer and 100 μl was added to each well. Plates were incubated for 30 minutes with shaking followed by 2 washes with PBS. 100 μl of TMB substrate was added to each well and plates were shaken during a 10 minute color development. Plates were read using a plate spectrophotometer at 630 nm.
(§9) Two negative and two positive controls were used in both types of ELISAs. For example, the negative controls were wells that contained 50 μl of an active control peptide, integrin, and biotinylated ligand or 50 μl of the active control peptide and 50 μl of buffer. These negative control wells typically develop little to no color. […] These wells typically develop the maximum amount of color.
as §8

[5] = biological target: T3, αvβ5 integrin (Homo sapiens, UniProt P06756+P18084); assay: ELISA: biotinylated vitronectin binding to captured soluble αvβ5-mFc in the presence of RGD peptides
T3 construct: chimeras comprising the extracellular domain of αvβ3, αvβ5, α5β1, and αIIbβ3 linked to the Fc domain of either mouse IgG; purchased Celltech plc (supplied, no catalogue number); host or cells: unpurified hybridoma / tissue culture supernatant from secreting cells
T3 sequence (P06756 31-992 limits assumed): as the sequence (P06756 31-992 limits assumed) above
T3 sequence (P18084 24-719 limits assumed): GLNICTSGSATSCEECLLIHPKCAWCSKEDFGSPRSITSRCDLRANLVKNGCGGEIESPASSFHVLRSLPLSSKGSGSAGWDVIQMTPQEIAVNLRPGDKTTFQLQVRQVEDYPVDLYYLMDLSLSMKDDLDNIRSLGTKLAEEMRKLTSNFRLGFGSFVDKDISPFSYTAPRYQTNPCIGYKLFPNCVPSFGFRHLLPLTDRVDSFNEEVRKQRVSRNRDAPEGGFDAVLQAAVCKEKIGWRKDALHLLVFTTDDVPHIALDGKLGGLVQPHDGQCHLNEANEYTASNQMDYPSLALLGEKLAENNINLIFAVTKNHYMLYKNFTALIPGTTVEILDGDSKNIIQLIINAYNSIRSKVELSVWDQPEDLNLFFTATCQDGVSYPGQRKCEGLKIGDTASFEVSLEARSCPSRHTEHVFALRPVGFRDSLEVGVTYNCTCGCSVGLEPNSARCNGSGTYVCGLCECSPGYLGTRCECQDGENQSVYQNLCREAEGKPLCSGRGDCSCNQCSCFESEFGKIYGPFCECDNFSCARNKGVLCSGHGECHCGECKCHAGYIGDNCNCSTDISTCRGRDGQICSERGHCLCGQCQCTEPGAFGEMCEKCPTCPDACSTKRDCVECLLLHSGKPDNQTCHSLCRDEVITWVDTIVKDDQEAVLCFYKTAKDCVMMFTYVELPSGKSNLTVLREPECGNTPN
Excerpt: as §6
To analyze the affinity and selectively of RGD peptides for αIIbβ3 and αvβ5, 96-well ELISA plates were coated with anti-murine Fc antibody at 5 μg/ml in PBS, 100 μl per well and left overnight at 4° C. The plates were washed with PBS using a Denley Wellwash 4 Mk 2. Washing was repeated twice with a 400 μl wash per well. 200 μl/well of blocking buffer was then added for 1 hour followed by a repeat washing with PBS. 100 μl of tissue culture supernatant from cells secreting soluble αIIbβ3-mFc or αvβ5-mFc, diluted 1:2 in conjugate buffer, was added to each well. Plates were incubated with shaking for 1 hour followed by two washes with PBS. 100 μl of an RGD peptide (at concentrations of 200, 20, and 2 μM), followed by either 100 μl of biotinylated fibrinogen (at 1 μg/ml in conjugate buffer) or 100 μl of biotinylated vitronectin (at 2 μg/ml in conjugate buffer) were added to each well and incubated for 2 hours with shaking. After incubation, the plates were washed with PBS as described above. 100 μl of neutravidin-peroxidase was added to each well and the plates were incubated for 30 minutes with shaking, followed by two washes with PBS. 100 μl of TMB substrate was added to each well and the plates were shaken during color development. Plates were read using a plate spectrophotometer at 630 nm.
as §9, §8

[6] = biological target: T4, αIIbβ3 integrin (Homo sapiens, UniProt P05106+P08514); assay: ELISA: biotinylated fibrinogen binding to captured soluble αIIbβ3-mFc in the presence of RGD peptides
T4 construct: chimeras comprising the extracellular domain of αvβ3, αvβ5, α5β1, and αIIbβ3 linked to the Fc domain of either mouse IgG; purchased Celltech plc (supplied, no catalogue number); host or cells: unpurified hybridoma / tissue culture supernatant from secreting cells
Excerpt: as §6
The plates were washed with PBS using a Denley Wellwash 4 Mk 2. Washing was repeated twice with a 400 μl wash per well. 200 μl/well of blocking buffer was then added for 1 hour followed by a repeat washing with PBS. 100 μl of tissue culture supernatant from cells secreting soluble αIIbβ3-mFc or αvβ5-mFc, diluted 1:2 in conjugate buffer, was added to each well. […] After incubation, the plates were washed with PBS as described above. 100 μl of neutravidin-peroxidase was added to each well and the plates were incubated for 30 minutes with shaking, followed by two washes with PBS. 100 μl of TMB substrate was added to each well and the plates were shaken during color development. Plates were read using a plate spectrophotometer at 630 nm.
as §7, §8

[7] = tested on: A375M melanoma cell line; assay: Adhesion assay: [51Cr]-A375M cells to vitronectin; type: cell-based, human; settings: 20 μM peptide
Description: as §1, §2
(§10) Sodium [^51Cr] chromate was purchased from Amersham International, UK. […]
(§11) 25 μl (about 10,000 cells) were added to each quadruplicate well and the plates incubated at 37° C. in an 8% CO2 atmosphere for 1 hour. […] The radioactivity associated with each well was determined in a gamma counter (1261 Multigamma; Wallac, Sweden). Quadruplicate 25 μl samples of labeled cells were counted as 100% input values. To determine non-specific binding, the ability of cells to bind BSA-coated wells was also assessed. […]
as §5

[8] = tested on: VUP melanoma cell line; assay: Adhesion assay: [51Cr]-VUP cells to vitronectin; type: cell-based; settings: 20 μM peptide
Description: as §1, §2, §10, §11, §5

[9] = control peptide, concentration not given
[10] = preliminary screen 2, 20, 200 μM

Q: For GRGDSP [reference compound], which “adhesion of [51Cr]-A375M cells to laminin, normalized to absence of peptide (100%)” value ([1]; 200 μM peptide) is on record?
A: Its value is 13.51%±1.25%.

Q: What about the “adhesion of [51Cr]-A375M cells to laminin, normalized to absence of peptide (100%)” value [1, 9] of the same substance?
A: The value was 62.05%±1.88%.

Q: And the “adhesion of [51Cr]-VUP cells to laminin, normalized to absence of peptide (100%)” value [2, 9]?
A: Its value is 49.29%±2.74% and 43.05%±7.66%.

Q: “H-KPQVTRGDVFTEG-NH2 [A11, linear peptide, reference compound]” was tested. Which “effect on fibronectin binding to αvβ3” value ([3]; 2 μM) did it give?
A: Its value is “little effect”.

Q: What about the “fibronectin binding to αvβ3, % of the maximum signal” value ([3]; 20 μM peptide) of the same substance?
A: Its value is 58.7%.

Q: What about the “effect on the binding of fibronectin to α5β1” value [4, 10] of the same substance?
A: Its value is “no effect”.

Q: What about the “effect on the binding of vitronectin to αvβ5” value [5, 10] of the same substance?
A: Its value is “no effect”.

Q: And the “effect on the binding of fibrinogen to αIIbβ3” value ([6]; 20 μM)?
A: Its value is “significant effect”.

Q: For RGDY(OMe)K [A7], which “adhesion of [51Cr]-A375M cells to vitronectin, normalized to absence of peptide (100%)” value [7] is on record?
A: Its value is 106.99±1.66%.

Q: What about the “effect on α5β1 binding to fibronectin” value ([4]; 2 μM and 20 μM) of the same substance?
A: The value was “little effect”.

Q: What about the “effect on αvβ5 binding to vitronectin” value ([5]; 2 μM and 20 μM) of the same substance?
A: Its value is “little effect”.

Q: And the “adhesion of [51Cr]-VUP cells to vitronectin, normalized to absence of peptide (100%)” value [8]?
A: The value was 78.65%±3.98%.

Q: What about the “adhesion of [51Cr]-A375M cells to laminin, normalized to absence of peptide (100%)” value ([1]; 200 μM peptide) of the same substance?
A: Its value is 75.08%±1.53%.

Q: What about the “adhesion of [51Cr]-VUP cells to laminin, normalized to absence of peptide (100%)” value ([2]; highest concentration (200 μM)) of the same substance?
A: The value was 64.17%±1.31%.

Q: Which results are given for RGDY(OMe)KE [C1]?
A: selectivity for αIIbβ3 integrin [6]: high selectivity for αIIbβ3 integrin; fibrinogen binding to αIIbβ3 ([6]; 2 nM peptide): 59%; effect on the binding of αIIbβ3 to fibrinogen ([6]; nanomolar concentrations): significant effect
